These compounds were tested against T1, subunit H of V-ATPase (recombinant subunit H) (Mythimna separata, UniProt A0A0D3L6K4) (assay: microscale thermophoresis (Monolith NT.[…]), RED-NHS labelled protein).
T1 construct: full CDS in pET-15b, N-terminal His tag, E. coli BL21 (DE3), Ni-NTA twice, ~55 kDa, free subunit
T1 sequence (A0A0D3L6K4 1-474): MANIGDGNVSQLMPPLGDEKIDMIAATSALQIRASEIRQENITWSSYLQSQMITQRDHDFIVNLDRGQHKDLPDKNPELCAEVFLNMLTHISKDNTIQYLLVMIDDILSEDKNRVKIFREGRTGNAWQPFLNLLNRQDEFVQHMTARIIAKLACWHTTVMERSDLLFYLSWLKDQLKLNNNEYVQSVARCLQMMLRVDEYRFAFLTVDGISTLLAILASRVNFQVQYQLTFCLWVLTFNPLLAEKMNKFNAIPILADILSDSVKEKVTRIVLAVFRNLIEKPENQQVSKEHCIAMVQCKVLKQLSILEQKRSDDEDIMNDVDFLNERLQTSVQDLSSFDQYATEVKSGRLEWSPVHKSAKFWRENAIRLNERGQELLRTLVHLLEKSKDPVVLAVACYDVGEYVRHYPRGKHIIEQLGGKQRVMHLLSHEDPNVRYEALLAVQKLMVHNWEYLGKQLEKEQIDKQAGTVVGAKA
Assay type: binding

Point of comparison: `CC(=O)O[C@H]1C[C@](C)(O)[C@]23OC(C)(C)[C@H]([C@H](OC(=O)C(C)C)[C@@H](OC(=O)c4ccccc4)[C@]2(COC(=O)C(C)C)[C@H]1OC(C)=O)[C@H]3OC(=O)C(C)N` (stereo partly drawn) [CV-6-α-aminopropanoic acid ester], Kd 144 µM. Against it:
- CNc1ccccc1C(=O)O[C@@H]1[C@H]2[C@H](OC(=O)C(C)C)[C@@H](OC(=O)c3ccccc3)[C@]3(COC(=O)C(C)C)[C@@H](OC(C)=O)[C@@H](OC(C)=O)C[C@](C)(O)[C@@]13OC2(C)C [CV-6-N-methylisatoic] — within 1.5-fold, 213 µM
- CC(=O)O[C@H]1C[C@](C)(O)[C@]23OC(C)(C)[C@H]([C@H](OC(=O)C(C)C)[C@@H](OC(=O)c4ccccc4)[C@]2(COC(=O)C(C)C)[C@H]1OC(C)=O)[C@H]3OC(=O)CN [CV-6-aminoacetic acid ester] — within 1.5-fold, 156 µM

Reference: paper PMC4810224, “Validation of the Target Protein of Insecticidal Dihydroagarofuran Sesquiterpene Polyesters” (Toxins, 2016)
